Measurements taken from US20140343000A1 (priority 2011, published 2014).
pEC50: −log10 of the molar value.

What follows are molecules tested on recombinant NL4-3 virus (Renilla luciferase in nef, Gag P373S; NLRluc) in MT-2 cells (assay: whole plant or invertebrate). Settings: Renilla, NL43.
Assay type: cell-based, HIV
Method in brief: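 First, reporter virus was generated in 293T cells and titered on MT-2 cells. Next, MT-2 cells were infected in the presence of serial compound dilutions for 4-5 days. Finally, cells were lysed and luciferase activity was measured to quantify inhibition.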

Compound	pEC50
C=C(C)[C@@H]1CC[C@]2(NCCN3CCS(=O)(=O)CC3)CC[C@]3(C)[C@H](CC[C@@H]4[C@@]5(C)CC=C(c6ccc(C(=O)O[C@H]7O[C@H](C(=O)O)[C@@H](O)[C@H](O)[C@H]7O)cc6)C(C)(C)[C@@H]5CC[C@]43C)[C@@H]12 [Example B7B, (2S,3S,4S,5R,6R)-6-((4-((1R,3aS,5aR,5bR,7aR,11aS,11bR,13aR,13bR)-3a-((2-(1,1-dioxidothiomorpholino)ethyl)amino)-5a,5b,8,8,11a-pentamethyl-1-(prop-1-en-2-yl)-2,3,3a,4,5,5a,5b,6,7,7a,8,11,11a,11b,12,13,13a,13b-octadecahydro-1H-cyclopenta[a]chrysen-9-yl)benzoyl)oxy)-3,4,5-trihydroxytetrahydro-2H-pyran-2-carboxylic acid]	> 7.00

Same assay, conditions: Renilla, NL43, luciferase activity in cells infected for 4-5 days with NLRluc recombinants, serial dilutions of inhibitor; class symbols (key in Table 1); read-out: EC50

Compound	pEC50
C=C(C)[C@@H]1CC[C@]2(NCC(=O)N(CC)CC)CC[C@]3(C)[C@H](CC[C@@H]4[C@@]5(C)CC=C(c6ccc(C(=O)O)cc6)C(C)(C)[C@@H]5CC[C@]43C)[C@@H]12 [Example 149, 4-((1R,3aS,5aR,5bR,7aR,11aS,11bR,13aR,13bR)-3a-(2-(diethylamino)-2-oxoethylamino)-5a,5b,8,8,11a-pentamethyl-1-(prop-1-en-2-yl)-2,3,3a,4,5,5a,5b,6,7,7a,8,11,11a,11b,12,13,13a,13b-octadecahydro-1H-cyclopenta[a]chrysen-9-yl)benzoic acid]	> 7.00
C=C(C)[C@@H]1CC[C@]2(NCc3csc(C)n3)CC[C@]3(C)[C@H](CC[C@@H]4[C@@]5(C)CC=C(c6ccc(C(=O)O)cc6)C(C)(C)[C@@H]5CC[C@]43C)[C@@H]12 [Example 162, 4-((1R,3aS,5aR,5bR,7aR,11aS,11bR,13aR,13bR)-5a,5b,8,8,11a-pentamethyl-3a-((2-methylthiazol-4-yl)methylamino)-1-(prop-1-en-2-yl)-2,3,3a,4,5,5a,5b,6,7,7a,8,11,11a,11b,12,13,13a,13b-octadecahydro-1H-cyclopenta[a]chrysen-9-yl)benzoic acid]	> 7.00
C=C(C)[C@@H]1CC[C@]2(NC(=O)N(C)CCCN(C)C)CC[C@]3(C)[C@H](CC[C@@H]4[C@@]5(C)CC=C(c6ccc(C(=O)O)cc6)C(C)(C)[C@@H]5CC[C@]43C)[C@@H]12 [Example 46, 4-((1R,3aS,5aR,5bR,7aR,11aS,11bR,13aR,13bR)-3a-(3-(3-(dimethylamino)propyl)-3-methylureido)-5a,5b,8,8,11a-pentamethyl-1-(prop-1-en-2-yl)-2,3,3a,4,5,5a,5b,6,7,7a,8,11,11a,11b,12,13,13a,13b-octadecahydro-1H-cyclopenta[a]chrysen-9-yl)benzoic acid]	> 7.00
C=C(C)[C@@H]1CC[C@]2(NC(=O)N3CCNC(=O)C3CC(=O)O)CC[C@]3(C)[C@H](CC[C@@H]4[C@@]5(C)CC=C(c6ccc(C(=O)O)cc6)C(C)(C)[C@@H]5CC[C@]43C)[C@@H]12 (stereo partly drawn) [Example 56, 4-((1R,3aS,5aR,5bR,7aR,11aS,11bR,13aR,13bR)-3a-(2-(carboxymethyl)-3-oxopiperazine-1-carboxamido)-5a,5b,8,8,11a-pentamethyl-1-(prop-1-en-2-yl)-2,3,3a,4,5,5a,5b,6,7,7a,8,11,11a,11b,12,13,13a,13b-octadecahydro-1H-cyclopenta[a]chrysen-9-yl)benzoic acid]	> 7.00
C=C(C)[C@@H]1CC[C@]2(NC(=O)COc3cccnc3)CC[C@]3(C)[C@H](CC[C@@H]4[C@@]5(C)CC=C(c6ccc(C(=O)O)cc6)C(C)(C)[C@@H]5CC[C@]43C)[C@@H]12 [Example 121, 4-((1R,3aS,5aR,5bR,7aR,11aS,11bR,13aR,13bR)-5a,5b,8,8,11a-pentamethyl-1-(prop-1-en-2-yl)-3a-(2-(pyridin-3-yloxy)acetamido)-2,3,3a,4,5,5a,5b,6,7,7a,8,11,11a,11b,12,13,13a,13b-octadecahydro-1H-cyclopenta[a]chrysen-9-yl)benzoic acid]	> 7.00
C=C(C)[C@@H]1CC[C@]2(NCC(C)C)CC[C@]3(C)[C@H](CC[C@@H]4[C@@]5(C)CC=C(c6ccc(C(=O)O)cc6)C(C)(C)[C@@H]5CC[C@]43C)[C@@H]12 [Example 181, 4-((1R,3aS,5aR,5bR,7aR,11aS,11bR,13aR,13bR)-3a-(isobutylamino)-5a,5b,8,8,11a-pentamethyl-1-(prop-1-en-2-yl)-2,3,3a,4,5,5a,5b,6,7,7a,8,11,11a,11b,12,13,13a,13b-octadecahydro-1H-cyclopenta[a]chrysen-9-yl)benzoic acid]	> 7.00
C=C(C)[C@@H]1CC[C@]2(NC(=O)NCCCN(C)S(C)(=O)=O)CC[C@]3(C)[C@H](CC[C@@H]4[C@@]5(C)CC=C(c6ccc(C(=O)O)cc6)C(C)(C)[C@@H]5CC[C@]43C)[C@@H]12 [Example 49, 4-((1R,3aS,5aR,5bR,7aR,11aS,11bR,13aR,13bR)-5a,5b,8,8,11a-pentamethyl-3a-(3-(3-(N-methylmethylsulfonamido)propyl)ureido)-1-(prop-1-en-2-yl)-2,3,3a,4,5,5a,5b,6,7,7a,8,11,11a,11b,12,13,13a,13b-octadecahydro-1H-cyclopenta[a]chrysen-9-yl)benzoic acid]	> 7.00
C=C(C)[C@@H]1CC[C@]2(NCC(=O)N3CCCC3)CC[C@]3(C)[C@H](CC[C@@H]4[C@@]5(C)CC=C(c6ccc(C(=O)O)cc6)C(C)(C)[C@@H]5CC[C@]43C)[C@@H]12 [Example 147, 4-((1R,3aS,5aR,5bR,7aR,11aS,11bR,13aR,13bR)-5a,5b,8,8,11a-pentamethyl-3a-(2-oxo-2-(pyrrolidin-1-yl)ethylamino)-1-(prop-1-en-2-yl)-2,3,3a,4,5,5a,5b,6,7,7a,8,11,11a,11b,12,13,13a,13b-octadecahydro-1H-cyclopenta[a]chrysen-9-yl)benzoic acid]	> 7.00
C=C(C)[C@@H]1CC[C@]2(NCCN3CCN(S(=O)(=O)c4ccc(Cl)cc4)CC3)CC[C@]3(C)[C@H](CC[C@@H]4[C@@]5(C)CC=C(c6ccc(C(=O)O)cc6)C(C)(C)[C@@H]5CC[C@]43C)[C@@H]12 [Example B46, 4-((1R,3aS,5aR,5bR,7aR,11aS,11bR,13aR,13bR)-3a-((2-(4-((4-chlorophenyl)sulfonyl)piperazin-1-yl)ethyl)amino)-5a,5b,8,8,11a-pentamethyl-1-(prop-1-en-2-yl)-2,3,3a,4,5,5a,5b,6,7,7a,8,11,11a,11b,12,13,13a,13b-octadecahydro-1H-cyclopenta[a]chrysen-9-yl)benzoic acid]	> 7.00
C=C(C)[C@@H]1CC[C@]2(NC(=O)CN3CCOC3=O)CC[C@]3(C)[C@H](CC[C@@H]4[C@@]5(C)CC=C(c6ccc(C(=O)O)cc6)C(C)(C)[C@@H]5CC[C@]43C)[C@@H]12 [Example 105, 4-((1R,3aS,5aR,5bR,7aR,11aS,11bR,13aR,13bR)-5a,5b,8,8,11a-pentamethyl-3a-(2-(2-oxooxazolidin-3-yl)acetamido)-1-(prop-1-en-2-yl)-2,3,3a,4,5,5a,5b,6,7,7a,8,11,11a,11b,12,13,13a,13b-octadecahydro-1H-cyclopenta[a]chrysen-9-yl)benzoic acid]	> 7.00
C=C(C)[C@@H]1CC[C@]2(NC(=O)NCCc3c[nH]cn3)CC[C@]3(C)[C@H](CC[C@@H]4[C@@]5(C)CC=C(c6ccc(C(=O)O)cc6)C(C)(C)[C@@H]5CC[C@]43C)[C@@H]12 [Example 13, 4-((1R,3aS,5aR,5bR,7aR,11aS,11bR,13aR,13bR)-3a-(3-(2-(1H-imidazol-4-yl)ethyl)ureido)-5a,5b,8,8,11a-pentamethyl-1-(prop-1-en-2-yl)-2,3,3a,4,5,5a,5b,6,7,7a,8,11,11a,11b,12,13,13a,13b-octadecahydro-1H-cyclopenta[a]chrysen-9-yl)benzoic acid]	> 7.00
C=C(C)[C@@H]1CC[C@]2(NC(=O)NCCC(=O)O)CC[C@]3(C)[C@H](CC[C@@H]4[C@@]5(C)CC=C(c6ccc(C(=O)O)cc6)C(C)(C)[C@@H]5CC[C@]43C)[C@@H]12 [Example 33, 4-((1R,3aS,5aR,5bR,7aR,11aS,11bR,13aR,13bR)-3a-(3-(2-carboxyethyl)ureido)-5a,5b,8,8,11a-pentamethyl-1-(prop-1-en-2-yl)-2,3,3a,4,5,5a,5b,6,7,7a,8,11,11a,11b,12,13,13a,13b-octadecahydro-1H-cyclopenta[a]chrysen-9-yl)benzoic acid]	> 7.00

Same assay, conditions: Renilla, NL43, luciferase activity in cells infected for 4-5 days with NLRluc recombinants, serial dilutions of inhibitor; numeric values; read-out: EC50

Compound	pEC50
C=C(C)[C@@H]1CC[C@]2(NC(=O)N(CCN)CCC(=O)O)CC[C@]3(C)[C@H](CC[C@@H]4[C@@]5(C)CC=C(c6ccc(C(=O)O)cc6)C(C)(C)[C@@H]5CC[C@]43C)[C@@H]12 [Example 43, 4-((1R,3aS,5aR,5bR,7aR,11aS,11bR,13aR,13bR)-3a-(3-(2-aminoethyl)-3-(2-carboxyethyl)ureido)-5a,5b,8,8,11a-pentamethyl-1-(prop-1-en-2-yl)-2,3,3a,4,5,5a,5b,6,7,7a,8,11,11a,11b,12,13,13a,13b-octadecahydro-1H-cyclopenta[a]chrysen-9-yl)benzoic acid]	7.52
C=C(C)[C@@H]1CC[C@]2(NC(=O)C(=O)NC3CCCCC3)CC[C@]3(C)[C@H](CC[C@@H]4[C@@]5(C)CC=C(c6ccc(C(=O)O)cc6)C(C)(C)[C@@H]5CC[C@]43C)[C@@H]12 [Example 80, 4-((1R,3aS,5aR,5bR,7aR,11aS,11bR,13aR,13bR)-3a-(2-(cyclohexylamino)-2-oxoacetamido)-5a,5b,8,8,11a-pentamethyl-1-(prop-1-en-2-yl)-2,3,3a,4,5,5a,5b,6,7,7a,8,11,11a,11b,12,13,13a,13b-octadecahydro-1H-cyclopenta[a]chrysen-9-yl)benzoic acid]	6.96
